Consider seven compounds from patent US11591331B2, “PARP1 inhibitors and uses thereof” (Xinthera, Inc., priority 2021, dated 2023).

Molecules are shown by their SMILES. A value given as a limit tells only on which side of the number the result lay.

Data set [1] can be described thus: In vitro human hepatic clearance in cellular relay format. Type of data set: in vitro ADME. Particulars: cryopreserved hepatocytes in suspension (relay format); human hepatocytes relay, 5 incubations of 4 hrs, 0.5E+06 viable cells/mL. On the procedure: (§1) Example C: In Vitro Human Hepatic Clearance in Cellular Relay Format
(§2) Working stocks of individual test articles were prepared at concentrations of 100 μM by diluting 10 mM stocks prepared in DMSO 100-fold (v:v) into ACN/1H2O (50/50, v:v). Human cryopreserved hepatocytes were thawed in a 37° C. water bath in <2 min., suspended in thawing media, and then centrifuged at 100×g for 10 min. Thawing media was aspirated, and pelleted hepatocytes were resuspended into incubation media at 1.5E+06 cells/mL. Cell viability was determined using an Acridine Orange/Propidium Iodine stain, and hepatocytes were further diluted with incubation media to 0.5E+06 viable cells/mL. Hepatocyte aliquots of 495 μL were added to wells of a 24-well plate, and test article incubations were initiated by the addition of 5 μL of 100 μM working stocks. Plates were incubated at 37° C. in a 5% CO2 atmosphere at 95% relative humidity on an orbital shaker at 300 rpm. Incubations were performed in duplicate. At time=0 and 4 hrs., aliquots of each incubation were extracted with 6 volumes ACN containing internal standards. After 4 hrs., hepatocytes were removed from the incubations via centrifugation, and supernatants were stored frozen until the following day at which point incubations were reinitiated by diluting thawed supernatants with freshly thawed hepatocytes in incubation media, again to a final concentration of 0.5E+06 viable cells/mL. These steps were repeated for a total of 5 incubations of 4 hrs. each covering 20 total hours of incubation. Incubational losses due to cellular uptake, nonspecific binding, and dilution at each relay step were corrected for. Supernatants of all incubation aliquots were diluted into ultrapure water prior to analysis via LC/MS/MS. In vitro intrinsic clearances (CLint) in μL/min/IE+06 cells were determined for each incubation from calculated in vitro half-lives determined using a standard log-linear regression approach. In vitro CLint values were scaled up using the following physiological scaling factors: 99E+06 cells/g human liver and 25.7 g human liver/kg body weight. Scaled intrinsic clearance values were finally introduced to the well-stirred liver model for the purpose of calculating predicted human hepatic clearance (CLhep,pred) in mL/min/kg assuming a human liver blood flow of 20.7 mL/min/kg and making no corrections for test article binding to red blood cells, plasma proteins, or components of the incubation system. S-Warfarin, Disopyramide and Diazepam were used as assay controls.

Data set [2] concerns Human cryopreserved hepatocytes. Described as above. The data set is classed as in vitro ADME. Particulars: predicted human hepatic clearance, well-stirred liver model, scaled from in vitro CLint. On the procedure: as §1, §2
The subject of the next data set is DLD-1 BRCA2(−/−). Kind of data set: Cell growth inhibition assay (CellTiter-Glo cell viability, 7 days). Type of data set: cell-based. Particulars: Homo sapiens, 168 h, DLD-1 BRCA2(-/-) cells.
The next data set has as its system DLD-1 parental. Described as above. The data set is classed as cell-based. Particulars: Homo sapiens, 168 h, DLD-1 parental cells. An excerpt: Example A: Cell Growth Inhibition Assay
The objective of this study is to evaluate the effect of invention compounds on cell proliferation through the cell viability assay in DLD-1 BRCA2(−/−) and parental isogenic pair and MDA-MB-436 (mutated BRCA1) cell lines. The CellTiter-Glo (CTG) based cell viability assay is designed to determine the number of viable cells in the culture because of compound effect, by quantifying ATP, which indicates the presence of metabolically active cells.
DLD-1 BRCA2(−/−) and parental isogenic pair were cultured in RPMI 1640 supplemented with 10% fetal bovine serum (FBS), and MDA-MB-436 cells were cultured in DMEM supplemented with 10% FBS. Both are culture at 37° C. with 5% CO2. Invention compounds were distributed to the 384 well plate (Corning, 3764) using Echo acoustic liquid handler to form a 1:3 serially diluted final concentration with top dose of 10 or 30 μM. The cells were seeded into the plate in the density of 50 cells/well (DLD-1 parental), 200 cells/well (DLD-1 BRCA2−/−), or 500 cells/well (MDA-MB-436). After a short spun, the cells were cultured in a well moisturized incubator at 37° C. with 5% CO2 for 7 days without disturbance. The cell viability was measured by CellTiter Glo 2.0 assay kit (Promega, G9243), and growth inhibition rate was calculated and plotted against final compound concentration, and the data were fitted in Xfit to generate IC50.

Data set [3] relates to MDA-MB-436 (mutated BRCA1) cell lines. The data set is described as above. Type of data set: cell-based. The settings on record: Homo sapiens, 168 h, MDA-MB-436 cells.

Usually half-life stands for the time needed for the level to fall by half in the phase considered. In the case of `CCc1cc2ncc(CN3CCN(c4ccc(C(=O)NC)nc4)CC3)cc2[nH]c1=O` [AZD5305], the half-life at 1 µM in data set [1] is 31.8 h. Besides, the “Clhep,pred” value in data set [2] is given as 1.69 mL/min/kg.
What is called EC50 is the concentration needed to bring the measured effect to its halfway point. As to `CCc1cc2ncc(CN3CCN(c4ccc(C(=O)NC)nc4C#N)CC3)cc2[nH]c1=O` [Example 1, 6-cyano-5-{4-[(7-ethyl-6-oxo-5H-1,5-naphthyridin-3-yl)methyl]piperazin-1-yl}-N-methylpyridine-2-carboxamide], the EC50 was found to be 0.0014 µM with DLD-1 BRCA2(−/−), 5000 µM in the data set with DLD-1 parental and 0.00063 µM in data set [3]. This compound also showed a half-life at 1 µM in data set [1] of 32.5 h. In data set [2], the “Clhep,pred” value is on record as 1.67 mL/min/kg.
For `CCc1cc2ncc(CN3CCN(c4ccc(C(=O)NC)nc4)[C@H](C)C3)cc2[nH]c1=O` [Example 2, 5-[(2R)-4-[(7-ethyl-6-oxo-5H-1,5-naphthyridin-3-yl)methyl]-2-methylpiperazin-1-yl]-N-methylpyridine-2-carboxamide], in that order: 0.0048 µM, greater than 30 µM, 0.004 µM, 31.5 h and 1.71 mL/min/kg.
The corresponding values for `CCc1cc2ncc(CN3CCN(c4cnc(C(=O)NC)c(F)c4)CC3)cc2[nH]c1=O` [Example 5, 5-(4-((7-ethyl-6-oxo-5,6-dihydro-1,5-naphthyridin-3-yl)methyl)piperazin-1-yl)-3-fluoro-N-methylpicolinamide] are 0.0025 µM, 470 µM, 0.0014 µM, 109 h and 0.53 mL/min/kg.
Turning to `CNC(=O)c1ccc(N2CCN(Cc3cnc4cc(C5CC5)c(=O)[nH]c4c3)CC2)cn1` [Example 15, 5-{4-[(7-cyclopropyl-6-oxo-5H-1,5-naphthyridin-3-yl)methyl]piperazin-1-yl}-N-methylpyridine-2-carboxamide], the EC50 is 0.0018 µM with DLD-1 BRCA2(−/−), greater than 30 µM in the data set with DLD-1 parental and 0.0013 µM in data set [3]. Moreover, the half-life at 1 µM in data set [1] is greater than 62.1 h. In data set [2], the “Clhep,pred” value is listed as less than 0.9 mL/min/kg.
For `O=C(NC1CC1)c1ccc(N2CCN(Cc3cnc4cc(C5CC5)c(=O)[nH]c4c3)CC2)cn1` [Example 24, N-cyclopropyl-5-{4-[(7-cyclopropyl-6-oxo-5H-1,5-naphthyridin-3-yl)methyl]piperazin-1-yl}pyridine-2-carboxamide], in that order: 0.0025 µM, greater than 30 µM, 0.0014 µM, greater than 62.1 h and less than 0.9 mL/min/kg.
As for `CCc1cc2ncc(CN3CCN(c4ccc(C(=O)N[C@H](C)COC)nc4)CC3)cc2[nH]c1=O` [Example 56], the EC50 amounted to 0.0071 µM in the data set with DLD-1 BRCA2(−/−) and 0.0022 µM in data set [3]. For the same compound, the half-life at 1 µM in data set [1] is greater than 62.1 h. For the same compound, the “Clhep,pred” value in data set [2] was less than 0.9 mL/min/kg.
